Drawing on US20240150368A1, “ULK INHIBITORS AND METHODS OF USE THEREOF” (Deciphera Pharmaceuticals, LLC, priority 2022, published 2024), this text covers IC50 for 43 compounds.

Molecules are shown by their SMILES. A value given as a limit tells only on which side of the number the result lay.

In assay [1] the target is T1, LRRK2 kinase (Homo sapiens, UniProt Q5S007).
T1 construct: (residues 970-2528; ID NO; 3); purchased Thermo Fisher
The assay is described as follows: Biochemical assay for LRRK2 (coupled pyruvate kinase/lactate dehydrogenase assay). Particulars: 26.4 nM LRRK2, 1 mM ATP; read-out: LRRK2 (inhibition of LRRK2 kinase activity, IC50). As for the experimental part:
Biochemical Assay for LRRK2 (SEQ. ID NO. 3)
Activity of LRRK2 kinase was determined spectroscopically using a coupled pyruvate kinase/lactate dehydrogenase assay that continuously monitors the ATP hydrolysis-dependent oxidation of NADH (e.g., Schindler et al. Science (2000) 289: 1938-1942). Assays were conducted in 384-well plates (100 μL final volume) using 26.4 nM LRRK2 (Thermo Fisher), 0.1 mM peptide substrate (RLGRDKYKTLRQIRQ), 1.5 units pyruvate kinase, 2.1 units lactate dehydrogenase, 1 mM phosphoenol pyruvate, 0.28 mM NADH and 1 mM ATP in assay buffer (100 mM Tris, pH 7.5, 15 mM MgCl2, 0.5 mM DTT, 0.004% (w/v) BSA, and 0.004% Triton X-100). Inhibition of LRRK2 was measured by adding serial diluted test compound (final assay concentration of 1% DMSO). A decrease in absorption at 340 nm was monitored continuously for 6 h at 30° C. on a multi-mode microplate reader (BioTek). The reaction rate was calculated using the 2-3 h time frame. The reaction rate at each concentration of compound was converted to percent inhibition using controls (i.e., reaction with no test compound and reaction with a known inhibitor) and IC50 values were calculated using software routines in Prism (GraphPad software).

The test system of assay [2] is ULK kinase substrate ATG13 (pS318-ATG13) in HCT-116 cells. The assay is described as follows: pATG13 levels of mutant KRas HCT-116 cells after treatment with ULK inhibitors in combination with trametinib (ELISA). Type of assay: cell-based, human. As for the experimental part:
pATG13 Levels of Mutant KRas HCT-116 Cells after Treatment with ULK Inhibitors in Combination with Trametinib
HCT-116 human colon cancer cells (10000 cells/well) were added to a 384-well tissue-culture treated plate in 50 μL of pre-warmed DMEM medium supplemented with 10% characterized fetal bovine serum (Invitrogen, Carlsbad, CA), 100 units/mL penicillin G, and 100 μg/mL streptomycin and allowed to grow overnight at 37° C., 5% CO2, and 95% humidity. The following day, 10 μL of media containing trametinib or DMSO as a control was added to wells. The final concentration of trametinib in wells was 250 nM. A dose response of a test compound (0.6 μL per well) was added. DMSO (0.6 μL) was added to control wells. The plate was briefly shaken to mix wells and then incubated at 37° C. overnight. The next day, the media was aspirated and cells were washed with Dulbecco's Phosphate Buffered Saline (Gibco). Cells were lysed using MPER lysis buffer (Pierce, Rockford, IL) containing Halt Phosphatase and Protease Inhibitors (Pierce, Rockford, IL) and Phosphatase inhibitor cocktail 2 (Sigma, St. Louis, MO) at 4° C. for 10 minutes with shaking.
Cellular levels of phospho-Serine 318 ATG13 (pATG13) were measured via an ELISA method. Total ATG13 Antibody (Cell Signaling Cat #13273) was used to coat the wells. The plate was incubated at 4° C. overnight and washed with ELISA wash buffer (Biolegend Cat #421601). The wells were then blocked with assay diluent (Biolegend Cat #421203) for 1 h at rt. Plate wells were washed with ELISA wash buffer. Cell lysate was added to wells and incubated at rt for 2 h. Plate wells were washed with ELISA wash buffer. Biotinylated pS318-ATG13 antibody (Rockland Immunochemicals Cat #600-401-C49) was diluted in assay diluent and added to each well and incubated at rt for 1 h. Plate wells were washed with ELISA wash buffer. Streptavidin linked to horseradish peroxidase (Thermo Fisher Cat #21140) was diluted in assay diluent and added to each well and incubated at rt for 1 h. Plate wells were washed with ELISA wash buffer. High sensitivity TMB substrate (Biolegend Cat #421101) was added to each well and incubated at rt for 20 minutes. The reaction was stopped with 2.0N sulfuric acid. The plate was analyzed at on a plate reader measuring absorbance at 450 nm and 540 nm (background). Signal was calculated by first subtracting the background absorbance at 540 nm from the absorbance at 450 nm for each well. Next, the background corrected absorbance at 450 nm from blank wells was subtracted from test wells. Data was compared to control wells to determine % ATG13 phosphorylation. GraphPad Prism was used to calculate IC50 values.

T1 sequence (Q5S007 with tags, fused parts or gaps): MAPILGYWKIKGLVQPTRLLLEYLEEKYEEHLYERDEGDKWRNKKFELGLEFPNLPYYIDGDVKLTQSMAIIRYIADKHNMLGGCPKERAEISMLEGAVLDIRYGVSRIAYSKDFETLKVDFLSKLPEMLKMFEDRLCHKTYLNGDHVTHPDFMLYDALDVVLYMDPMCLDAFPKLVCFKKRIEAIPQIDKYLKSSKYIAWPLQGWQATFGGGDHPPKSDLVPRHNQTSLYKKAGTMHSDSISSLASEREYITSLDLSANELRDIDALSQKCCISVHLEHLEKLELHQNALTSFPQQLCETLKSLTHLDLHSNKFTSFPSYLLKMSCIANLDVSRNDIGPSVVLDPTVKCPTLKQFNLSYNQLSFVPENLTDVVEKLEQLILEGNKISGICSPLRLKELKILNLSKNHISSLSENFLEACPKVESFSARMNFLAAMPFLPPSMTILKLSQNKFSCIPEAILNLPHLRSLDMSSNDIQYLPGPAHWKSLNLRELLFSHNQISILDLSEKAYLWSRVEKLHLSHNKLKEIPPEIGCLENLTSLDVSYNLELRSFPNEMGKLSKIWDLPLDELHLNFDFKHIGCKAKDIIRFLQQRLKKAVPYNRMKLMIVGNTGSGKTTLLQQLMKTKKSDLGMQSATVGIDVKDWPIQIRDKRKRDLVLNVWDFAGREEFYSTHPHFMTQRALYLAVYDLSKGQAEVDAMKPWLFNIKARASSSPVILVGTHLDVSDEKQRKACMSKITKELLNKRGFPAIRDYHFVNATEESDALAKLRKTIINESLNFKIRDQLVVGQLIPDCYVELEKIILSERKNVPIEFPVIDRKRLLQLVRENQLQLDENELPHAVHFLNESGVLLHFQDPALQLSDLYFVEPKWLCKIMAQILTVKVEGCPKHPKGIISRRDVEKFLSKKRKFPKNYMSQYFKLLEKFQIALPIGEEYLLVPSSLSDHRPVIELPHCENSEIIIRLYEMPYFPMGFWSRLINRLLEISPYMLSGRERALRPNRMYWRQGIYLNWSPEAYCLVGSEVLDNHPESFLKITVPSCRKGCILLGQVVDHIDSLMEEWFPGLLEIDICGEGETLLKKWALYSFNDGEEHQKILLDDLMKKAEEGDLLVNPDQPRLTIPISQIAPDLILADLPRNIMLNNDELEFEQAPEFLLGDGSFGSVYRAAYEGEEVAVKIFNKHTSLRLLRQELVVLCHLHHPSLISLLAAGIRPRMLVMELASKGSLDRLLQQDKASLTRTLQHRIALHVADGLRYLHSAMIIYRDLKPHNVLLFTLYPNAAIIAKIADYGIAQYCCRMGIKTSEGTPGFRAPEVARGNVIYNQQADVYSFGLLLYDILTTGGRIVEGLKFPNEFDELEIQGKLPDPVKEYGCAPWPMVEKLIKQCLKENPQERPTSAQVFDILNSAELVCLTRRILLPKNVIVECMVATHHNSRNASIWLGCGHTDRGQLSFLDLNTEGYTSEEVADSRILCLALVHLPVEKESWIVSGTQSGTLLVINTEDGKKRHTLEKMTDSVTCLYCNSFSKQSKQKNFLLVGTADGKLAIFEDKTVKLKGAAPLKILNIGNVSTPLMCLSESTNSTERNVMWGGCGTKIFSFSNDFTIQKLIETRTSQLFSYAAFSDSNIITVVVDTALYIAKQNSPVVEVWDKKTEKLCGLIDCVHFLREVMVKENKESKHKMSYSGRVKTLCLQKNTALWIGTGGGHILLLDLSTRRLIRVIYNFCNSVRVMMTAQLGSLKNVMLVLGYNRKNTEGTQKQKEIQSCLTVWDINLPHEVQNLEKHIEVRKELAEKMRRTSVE

One may read the IC50 as the concentration that inhibits the measured activity by half. On to `CC/C(Nc1cnn(C(C)C)c1)=C1/C(=O)Nc2ccc(C(=O)NCC(F)(F)F)cc21` [Example 4, (Z)-3-(1-((1-isopropyl-1H-pyrazol-4-yl)amino)propylidene)-2-oxo-N-(2,2,2-trifluoroethyl)indoline-5-carboxamide], for which the concentration for half-maximal inhibition (IC50) in assay [1] and in assay [2] was no more than 0.1 µM each time.

Take `CC/C(Nc1cnn(C2CCN(C(C)C)CC2)c1)=C1/C(=O)Nc2ccc(C(=O)N(C)CC(F)(F)F)cc21` [Example 7]: in assay [2], the 50% inhibitory concentration (IC50) was no more than 0.1 µM. With `CC/C(Nc1cnn(C2CCN(C(C)C)CC2)c1)=C1/C(=O)Nc2ccc(C(=O)NCC(F)(F)F)cc21` [Example 8], the 50% inhibitory concentration (IC50) in assay [1] was 0.1 to 0.3 µM; in assay [2], no more than 0.1 µM.

In the case of `CC/C(Nc1cnn(C2CCN(C(C)C)CC2)c1)=C1/C(=O)Nc2ccc(C(=O)N(C)CCOC)cc21` [Example 9], the IC50 in assay [2] is no more than 0.1 µM. With `CC/C(Nc1cnn(C2CCN(C(C)C)CC2)c1)=C1/C(=O)Nc2ccc(C(=O)NCC(C)C)cc21` [Example 16], in assay [2], the IC50 was no more than 0.1 µM. For `CC/C(Nc1cnn(C2CCN(C(C)C)CC2)c1)=C1/C(=O)Nc2ccc(C(=O)NCCC#N)cc21` [Example 26], the IC50 was 0.1 to 0.3 µM in assay [1] and no more than 0.1 µM in assay [2].

Consider `CC/C(Nc1cnn(C2CCN(C(C)C)CC2)c1)=C1/C(=O)Nc2ccc(C(=O)NCCC(F)(F)F)cc21` [Example 31], for which the IC50 in assay [1] is no more than 0.1 µM. The same measure, in the same setting: in the case of `CC/C(Nc1cnn(C2CCN(C3CCOCC3)CC2)c1)=C1/C(=O)Nc2ccc(C(=O)NCC(C)C)cc21` [Example 37] it was 0.1 to 0.3 µM. Regarding `CC/C(Nc1ccc(N2CCN(C(C)C)CC2)cc1)=C1/C(=O)Nc2ccc(C(=O)NC[C@H]3CCCO3)cc21` [Example 47], the values for the IC50 in assay [1] and in assay [2] were 0.1 to 0.3 µM and no more than 0.1 µM, respectively. For `CC/C(Nc1cnn(C2CCNCC2)c1)=C1/C(=O)Nc2ccc(C(=O)NC[C@H]3CCCO3)cc21` [Example 52], in that order: 0.1 to 0.3 µM and no more than 0.1 µM. With `CC/C(Nc1cnn(C2CC3CCC(C2)N3C)c1)=C1/C(=O)Nc2ccc(C(=O)NC[C@H]3CCCO3)cc21` (stereo partly drawn) [Example 53], the IC50 in assay [2] was no more than 0.1 µM.

Turning to `CC/C(Nc1cnn(C2CN(C)C2)c1)=C1/C(=O)Nc2ccc(C(=O)NC[C@H]3CCCO3)cc21` [Example 54], the IC50 in assay [1] was 0.3 to 0.6 µM; in assay [2], no more than 0.1 µM. For `CC/C(Nc1cnn(C)c1)=C1/C(=O)Nc2ccc(C(=O)NC[C@H]3CCCO3)cc21` [Example 55], the IC50 in assay [1] was in the range of 0.1 to 0.3 µM.

Turning to `CC/C(Nc1cnn(C2CCN(C(C)C)CC2)c1)=C1/C(=O)Nc2ccc(C(=O)NC[C@@H](C)OC)cc21` [Example 58], the IC50 is 0.3 to 0.6 µM in assay [1] and no more than 0.1 µM in assay [2]. Regarding `CC/C(Nc1ccc(N2CC3CC(C2)N3C)cc1)=C1/C(=O)Nc2ccc(C(=O)NCC(F)(F)F)cc21` [Example 60], the concentration for half-maximal inhibition (IC50) in assay [2] was no more than 0.1 µM. For `CC/C(Nc1ccc(N2C[C@H]3CN(C)C[C@H]3C2)cc1)=C1/C(=O)Nc2ccc(C(=O)NCC(F)(F)F)cc21` [Example 61], the IC50 in assay [2] was no more than 0.1 µM.

As for `CC/C(Nc1ccc(N2CC3(CN(C)C3)C2)cc1)=C1/C(=O)Nc2ccc(C(=O)NCC(F)(F)F)cc21` [Example 62], in assay [1], the IC50 is no more than 0.1 µM.

Consider `CC/C(Nc1ccc(N2CCN(C(C)C)CC2)cn1)=C1/C(=O)Nc2ccc(C(=O)NC[C@H]3CCCO3)cc21` [Example 93], for which the IC50 in assay [1] and in assay [2] was no more than 0.1 µM throughout. `CC/C(Nc1cnc(N2CCN(C(C)C)CC2)cn1)=C1/C(=O)Nc2ccc(C(=O)NCC(F)(F)F)cc21` [Example 94]: the half-inhibitory concentration (IC50) in assay [1] lay in the range of 0.1 to 0.3 µM. As to `CC/C(Nc1cnn(C(C)C)c1)=C1/C(=O)Nc2ccc(C(=O)NC[C@H]3CCCO3)cc21` [Example 95], in assay [1], the IC50 is no more than 0.1 µM.

For `CC/C(Nc1cnn(C2CCN(C(C)C)CC2)c1)=C1/C(=O)Nc2ccc(C(=O)NCCOC)cc21` [Example 98], the half-maximal inhibitory concentration (IC50) in assay [1] was 0.1 to 0.3 µM; in assay [2], no more than 0.1 µM. For the compound `CC/C(Nc1cnn([C@H]2CCOC2)c1)=C1/C(=O)Nc2ccc(C(=O)NCC(F)(F)F)cc21` [Example 104], in assay [1], the IC50 was no more than 0.1 µM. For the compound `CC/C(Nc1cnn(CC)c1)=C1/C(=O)Nc2ccc(C(=O)NCC(F)(F)F)cc21` [Example 107], the IC50 in assay [1] and in assay [2] was no more than 0.1 µM throughout. For the compound `CC/C(Nc1cn[nH]c1)=C1/C(=O)Nc2ccc(C(=O)NCC(F)(F)F)cc21` [Example 108], the IC50 in assay [1] was in the range of 0.1 to 0.3 µM.

On to `CC/C(Nc1cnn(C(C)C)c1)=C1/C(=O)Nc2ccc(C(=O)NCC(F)F)cc21` [Example 112], for which, in assay [1], the IC50 is no more than 0.1 µM.

As for `CC/C(Nc1cnn(C(F)(F)F)c1)=C1/C(=O)Nc2ccc(C(=O)NCC(F)(F)F)cc21` [Example 113], the values for the IC50 in assay [1] and in assay [2] were 0.1 to 0.3 µM and no more than 0.1 µM, respectively.

As to `CC/C(Nc1cnn(C(F)F)c1)=C1/C(=O)Nc2ccc(C(=O)NCC(F)(F)F)cc21` [Example 114], the IC50 in assay [1] and in assay [2] was no more than 0.1 µM each time. Consider `CC/C(Nc1cnn(C2CC2)c1)=C1/C(=O)Nc2ccc(C(=O)NCC(F)(F)F)cc21` [Example 116], for which the IC50 in assay [1] was no more than 0.1 µM.

Regarding `CC/C(Nc1cnn(C2CCC2)c1)=C1/C(=O)Nc2ccc(C(=O)NCC(F)(F)F)cc21` [Example 117], the half-maximal inhibitory concentration (IC50) in assay [1] and in assay [2] was no more than 0.1 µM in each case. As to `CC/C(Nc1cnn(C2COC2)c1)=C1/C(=O)Nc2ccc(C(=O)NCC(F)(F)F)cc21` [Example 118], the IC50 in assay [1] is no more than 0.1 µM. For `CC/C(Nc1cnn(C(C)C)c1)=C1/C(=O)Nc2ccc(C(=O)N[C@H](C)C(F)(F)F)cc21` [Example 119], in assay [1], the IC50 is no more than 0.1 µM. Consider `CC/C(Nc1cnn(C2CCN(C(C)C)CC2)c1)=C1/C(=O)Nc2ccc(C(C)=O)cc21` [Example 123], for which the IC50 in assay [1] and in assay [2] was 0.1 to 0.3 µM throughout. As for `CC/C(Nc1cnn(C(C)C)c1)=C1/C(=O)Nc2ccc(C(=O)N(C)CC(F)(F)F)cc21` [Example 125], the IC50 in assay [1] was no more than 0.1 µM. As for `CC/C(Nc1cnn(C(C)C)c1)=C1/C(=O)Nc2ccc(C(=O)NCC(C)C)cc21` [Example 130], the IC50 in assay [1] and in assay [2] was no more than 0.1 µM in each case. Take `CC/C(Nc1cnn(C(C)C)c1)=C1/C(=O)Nc2ccc(C(=O)NCC(C)(C)F)cc21` [Example 135]: the IC50 in assay [1] was 0.1 to 0.3 µM; in assay [2], no more than 0.1 µM.

As to `CC/C(Nc1cnn(C(C)C)c1)=C1/C(=O)Nc2ccc(C(=O)NCCOC(F)(F)F)cc21` [Example 136], the IC50 in assay [1] fell in the range of 0.3 to 0.6 µM. Turning to `CC/C(Nc1cnn(C(C)C)c1)=C1/C(=O)Nc2ccc(C(=O)NCC3CCC(C)(C)O3)cc21` (stereo not drawn) [Example 137], in assay [1], the IC50 lay within 0.1 to 0.3 µM.

For `CC/C(Nc1cnn(C(C)C)c1)=C1/C(=O)Nc2ccc(C(=O)NCC3(C(F)(F)F)CC3)cc21` [Example 140], the IC50 in assay [1] and in assay [2] was no more than 0.1 µM in each case. With `CC/C(Nc1ccc2nn(C(C)C)cc2c1)=C1/C(=O)Nc2ccc(C(=O)NCC(F)(F)F)cc21` [Example 142], in assay [1], the concentration for half-maximal inhibition (IC50) is no more than 0.1 µM. As to `CC/C(Nc1cnn(C(C)C)c1)=C1/C(=O)Nc2ccc(C(=O)NCC3(F)CC3)cc21` [Example 152], the IC50 in assay [1] is no more than 0.1 µM. Same read-out and setting: the result for `CC/C(Nc1cnn(C)c1)=C1/C(=O)Nc2ccc(C(=O)NCC3(F)CC3)cc21` [Example 154] reads no more than 0.1 µM; that for `CC/C(Nc1cnn(CC(F)F)c1)=C1/C(=O)Nc2ccc(C(=O)NCC(C)(C)F)cc21` [Example 161], 0.1 to 0.3 µM; that for `CC/C(Nc1cnn(C2CCOCC2)c1)=C1/C(=O)Nc2ccc(C(=O)NCC(C)(C)F)cc21` [Example 173], no more than 0.1 µM.
